{"source": "paper PMC4503722", "about": "“Novel Phenotypic Outcomes Identified for a Public Collection of Approved Drugs from a Publicly Accessible Panel of Assays” (PLoS ONE, 2015)", "assay_in_all_cases": "cells", "key": {"[1]": {"system": "HCT116", "assay_type": "cell-based"}, "[2]": {"system": "HeLa cells", "assay_type": "cell-based", "settings": "HeLa, read-out: CellCycle G2/M"}, "[3]": {"system": "SW480", "assay_type": "cell-based"}, "[4]": {"system": "SNU-C1", "assay_type": "cell-based"}, "[5]": {"system": "Colo320", "assay_type": "cell-based"}, "[6]": {"system": "endothelial tube formation in co-cultures of ECFCs and ADSCs treated with VEGF", "assay_type": "cell-based, human"}, "[7]": {"system": "HT-29", "assay_type": "cell-based"}, "[8]": {"system": "NCI-H716 cells", "assay_type": "cell-based, Human"}, "[9]": {"system": "DLD-1", "assay_type": "cell-based"}, "[10]": {"system": "INS-1E cells", "assay_type": "cell-based, rat"}, "[11]": {"system": "RKO", "assay_type": "cell-based", "settings": "read-out: Basal_Viability ATP RKO"}, "[12]": {"system": "HCT116 cells treated with a GSK3β inhibitor", "assay_type": "cell-based"}, "[13]": {"system": "nuclear β-catenin in C2C12 cells", "assay_type": "cell-based"}, "[14]": {"settings": "Homo sapiens, COLO 320, read-out: Basal_Viability ATP Colo 320"}, "[15]": {"settings": "Homo sapiens, HCT-116, basal, HCT116, read-out: Basal_Viability ATP HCT116"}, "[16]": {"settings": "Homo sapiens, S2 Table, 20 = no response at highest concentration"}, "[17]": {"settings": "Homo sapiens, SW480, basal, SW480, read-out: Basal_Viability ATP SW480"}, "[18]": {"settings": "Homo sapiens, SNU-C1, basal, SNU-C1, read-out: Basal_Viability ATP SNU-C1"}, "[19]": {"settings": "Homo sapiens, basal, Colo 320, read-out: Basal_Viability ATP Colo 320"}, "[20]": {"settings": "Homo sapiens; read-out: Anti-Angiogenesis"}, "[21]": {"settings": "Homo sapiens, basal, HT-29, read-out: Basal_Viability ATP HT-29"}, "[22]": {"settings": "Homo sapiens, NCI-H716; read-out: GLP 1 Secretion"}, "[23]": {"settings": "Homo sapiens, DLD-1, basal, DLD-1, read-out: Basal_Viability ATP DLD-1"}, "[24]": {"settings": "Rattus norvegicus, INS-1E; read-out: Insulin Secretion"}, "[25]": {"settings": "Homo sapiens, HCT-116, HCT116 pretreated with GSK3b inhibitor, read-out: GSK3b inh pretreated_Viability ATP HCT116"}, "[26]": {"settings": "Mus musculus, C2C12; read-out: Wnt Pathway"}, "[27]": {"settings": "Mus musculus, C2C12, S2 Table; module primary assay; 20 / 20.1 codes per legend; read-out: Wnt Pathway"}}, "note": "pEC50, pIC50: −log10 of the molar value. Like-named read-outs stand apart in the source and are kept apart here.", "data": [{"compound": "O=C(c1cc(O)c(O)c(O)c1)c1ccc(O)c(O)c1O", "note": "[Hexahydro-2,3,4,3',4',5'-benzophenone]", "values": [{"measurement": "pIC50", "setting": "[1]; basal, read-out: Basal_Viability ATP HCT116", "value": 4.79}, {"measurement": "pEC50", "setting": "[2]; IC50 / EC50", "value": "< 5.00"}, {"measurement": "pIC50", "setting": "[3]; basal, read-out: Basal_Viability ATP SW480", "value": 5.00}, {"measurement": "pIC50", "setting": "[4]; basal, read-out: Basal_Viability ATP SNU-C1", "value": 4.89}, {"measurement": "pIC50", "setting": "[5]; basal, read-out: Basal_Viability ATP Colo 320", "value": 5.03}, {"measurement": "pIC50", "setting": "[6]; IC50 / EC50; endothelial tube area, ADSC/ECFC co-culture; read-out: Anti-Angiogenesis", "value": "< 5.00"}, {"measurement": "pIC50", "setting": "[7]; basal, read-out: Basal_Viability ATP HT-29", "value": 5.02}, {"measurement": "pEC50", "setting": "[8]; IC50 / EC50; NCI-H716; read-out: GLP 1 Secretion", "value": "< 5.00"}, {"measurement": "pIC50", "setting": "[9]; basal, read-out: Basal_Viability ATP DLD-1", "value": 4.92}, {"measurement": "pEC50", "setting": "[10]; IC50 / EC50; INS-1E; read-out: Insulin Secretion", "value": "< 5.00"}, {"measurement": "pIC50", "setting": "[11]; basal", "value": 6.72}, {"measurement": "pIC50", "setting": "[12]; GSK3b inhibitor pretreated, read-out: GSK3b inh pretreated_Viability ATP HCT116", "value": 7.16}, {"measurement": "pEC50", "setting": "[13]; IC50 / EC50; C2C12 beta-catenin translocation; read-out: Wnt Pathway", "value": "< 5.00"}]}, {"compound": "CN(C)c1ccc(C(=C2C=CC(=[N+](C)C)C=C2)c2ccccc2)cc1", "note": "[malachite green]", "values": [{"measurement": "pIC50", "setting": "[1]; Homo sapiens, HCT-116, read-out: Basal_Viability ATP HCT116", "value": 7.75}, {"measurement": "pIC50", "setting": "[3]; Homo sapiens, SW480, read-out: Basal_Viability ATP SW480", "value": 8.04}, {"measurement": "pIC50", "setting": "[4]; Homo sapiens, SNU-C1, read-out: Basal_Viability ATP SNU-C1", "value": 7.45}, {"measurement": "pIC50", "setting": "[5]; [14]", "value": 6.79}, {"measurement": "pIC50", "setting": "[6]; Homo sapiens, read-out: Anti-Angiogenesis", "value": 7.22}, {"measurement": "pIC50", "setting": "[7]; Homo sapiens, HT-29, read-out: Basal_Viability ATP HT-29", "value": 8.01}, {"measurement": "pEC50", "setting": "[8]; Homo sapiens, NCI-H716, read-out: GLP 1 Secretion", "value": "< 5.00"}, {"measurement": "pIC50", "setting": "[9]; Homo sapiens, DLD-1, read-out: Basal_Viability ATP DLD-1", "value": 7.66}, {"measurement": "pEC50", "setting": "[10]; Rattus norvegicus, INS-1E, read-out: Insulin Secretion", "value": "< 5.00"}, {"measurement": "pIC50", "setting": "[11]; Homo sapiens, RKO", "value": 6.93}, {"measurement": "pIC50", "setting": "[12]; Homo sapiens, HCT-116, read-out: GSK3b inh pretreated_Viability ATP HCT116", "value": 8.01}, {"measurement": "pEC50", "setting": "[13]; Mus musculus, C2C12, read-out: Wnt Pathway", "value": 6.44}]}, {"compound": "O=C1C2CC=CCC2C(=O)N1SC(Cl)(Cl)Cl", "note": "(centres unmarked) [captan]", "values": [{"measurement": "pIC50", "setting": "[1]; [15]", "value": 5.75}, {"measurement": "pEC50", "setting": "[2]; [16]", "value": "< 5.00"}, {"measurement": "pIC50", "setting": "[3]; [17]", "value": 7.10}, {"measurement": "pIC50", "setting": "[4]; [18]", "value": 6.04}, {"measurement": "pIC50", "setting": "[5]; [19]", "value": 6.51}, {"measurement": "pIC50", "setting": "[6]; [20]", "value": "< 5.00"}, {"measurement": "pIC50", "setting": "[7]; [21]", "value": 6.30}, {"measurement": "pEC50", "setting": "[8]; [22]", "value": "< 5.00"}, {"measurement": "pIC50", "setting": "[9]; [23]", "value": 6.46}, {"measurement": "pEC50", "setting": "[10]; [24]", "value": "< 5.00"}, {"measurement": "pIC50", "setting": "[11]; Homo sapiens, basal, RKO", "value": 6.40}, {"measurement": "pIC50", "setting": "[12]; [25]", "value": 5.66}, {"measurement": "pEC50", "setting": "[13]; [26]", "value": 6.29}]}, {"compound": "CC(=O)[O][Hg][c]1ccccc1", "note": "[Mercury, (acetato-o)phenyl-]", "values": [{"measurement": "pIC50", "setting": "[1]; basal, HCT116, read-out: Basal_Viability ATP HCT116", "value": 5.55}, {"measurement": "pIC50", "setting": "[3]; basal, SW480, read-out: Basal_Viability ATP SW480", "value": 6.27}, {"measurement": "pIC50", "setting": "[4]; basal, SNU-C1, read-out: Basal_Viability ATP SNU-C1", "value": 6.72}, {"measurement": "pIC50", "setting": "[5]; basal, Colo 320, read-out: Basal_Viability ATP Colo 320", "value": 5.88}, {"measurement": "pIC50", "setting": "[6]; read-out: Anti-Angiogenesis", "value": 6.28}, {"measurement": "pIC50", "setting": "[7]; basal, HT-29, read-out: Basal_Viability ATP HT-29", "value": 6.10}, {"measurement": "pEC50", "setting": "[8]; read-out: GLP 1 Secretion", "value": 6.15}, {"measurement": "pIC50", "setting": "[9]; basal, DLD-1, read-out: Basal_Viability ATP DLD-1", "value": 6.13}, {"measurement": "pEC50", "setting": "[10]; S2 Table; module primary assay; 20 / 20.1 codes per legend; read-out: Insulin Secretion", "value": "< 5.00"}, {"measurement": "pIC50", "setting": "[11]; basal, RKO", "value": 5.92}, {"measurement": "pIC50", "setting": "[12]; HCT116 pretreated with GSK3b inhibitor, read-out: GSK3b inh pretreated_Viability ATP HCT116", "value": 6.44}, {"measurement": "pEC50", "setting": "[13]; S2 Table; module primary assay; 20 / 20.1 codes per legend; read-out: Wnt Pathway", "value": "< 5.00"}]}, {"compound": "COP(=S)(OC)Oc1ccc(Sc2ccc(OP(=S)(OC)OC)cc2)cc1", "note": "[temephos]", "values": [{"measurement": "pIC50", "setting": "[1]; [15]", "value": "< 4.70"}, {"measurement": "pIC50", "setting": "[3]; [17]", "value": 7.93}, {"measurement": "pIC50", "setting": "[4]; [18]", "value": 5.52}, {"measurement": "pIC50", "setting": "[5]; [19]", "value": "< 4.70"}, {"measurement": "pIC50", "setting": "[6]; [20]", "value": "< 5.00"}, {"measurement": "pIC50", "setting": "[7]; [21]", "value": "< 4.70"}, {"measurement": "pEC50", "setting": "[8]; [22]", "value": "< 5.00"}, {"measurement": "pIC50", "setting": "[9]; [23]", "value": "< 4.70"}, {"measurement": "pEC50", "setting": "[10]; [24]", "value": "< 5.00"}, {"measurement": "pIC50", "setting": "[11]; Homo sapiens, RKO", "value": 4.92}, {"measurement": "pIC50", "setting": "[12]; [25]", "value": "< 4.70"}, {"measurement": "pEC50", "setting": "[13]; [27]", "value": "< 5.00"}]}, {"compound": "CC[C@@]1(O)C(=O)OCc2c1cc1n(c2=O)Cc2cc3c(CN(C)C)c(O)ccc3nc2-1", "note": "[topotecan]", "values": [{"measurement": "pIC50", "setting": "[1]; [15]", "value": 7.47}, {"measurement": "pEC50", "setting": "[2]; [16]", "value": "< 5.00"}, {"measurement": "pIC50", "setting": "[3]; [17]", "value": 6.63}, {"measurement": "pIC50", "setting": "[4]; [18]", "value": 6.52}, {"measurement": "pIC50", "setting": "[5]; [14]", "value": 5.03}, {"measurement": "pIC50", "setting": "[7]; [21]", "value": 7.61}, {"measurement": "pEC50", "setting": "[8]; [22]", "value": "< 5.00"}, {"measurement": "pIC50", "setting": "[9]; [23]", "value": 6.75}, {"measurement": "pEC50", "setting": "[10]; [24]", "value": "< 5.00"}, {"measurement": "pIC50", "setting": "[11]; Homo sapiens, basal, RKO", "value": 7.47}, {"measurement": "pIC50", "setting": "[12]; [25]", "value": 8.84}, {"measurement": "pEC50", "setting": "[13]; [26]", "value": 7.75}]}, {"compound": "Nc1nc(Cl)nc2c1ncn2[C@@H]1O[C@H](CO)[C@@H](O)[C@@H]1F", "note": "[clofarabine]", "values": [{"measurement": "pIC50", "setting": "[1]; [15]", "value": 9.00}, {"measurement": "pEC50", "setting": "[2]; [16]", "value": "< 5.00"}, {"measurement": "pIC50", "setting": "[3]; [17]", "value": 5.92}, {"measurement": "pIC50", "setting": "[4]; [18]", "value": "< 4.70"}, {"measurement": "pIC50", "setting": "[5]; [19]", "value": "< 4.70"}, {"measurement": "pIC50", "setting": "[7]; [21]", "value": "< 4.70"}, {"measurement": "pEC50", "setting": "[8]; [22]", "value": "< 5.00"}, {"measurement": "pIC50", "setting": "[9]; [23]", "value": 6.79}, {"measurement": "pEC50", "setting": "[10]; [24]", "value": "< 5.00"}, {"measurement": "pIC50", "setting": "[11]; Homo sapiens, basal, RKO", "value": 9.00}, {"measurement": "pIC50", "setting": "[12]; [25]", "value": 9.00}, {"measurement": "pEC50", "setting": "[13]; [27]", "value": "< 5.00"}]}]}
